Results as given in publication PMC9481151, “Discovery of new symmetrical and asymmetrical nitrile-containing 1,4-dihydropyridine derivatives as dual kinases and P-glycoprotein inhibitors: synthesis, in vitro assays, and in silico studies” (Journal of Enzyme Inhibition and Medicinal Chemistry, 2022).
Where “and” joins values, the source holds several entries; their conditions need not be identical. Identical values can stand only once.

Legend:
TK-10 = test: NCI single dose (10 µM) SRB screen; format: cell-based, human; settings: renal cancer, 48 h
Escherichia coli = test: Agar well diffusion method
BT-549 = test: NCI single dose (10 µM) SRB screen; format: cell-based, human; settings: breast cancer, 48 h
Bacillus subtilis = test: Agar well diffusion method
Candida albicans = test: Agar well diffusion method
SK-MEL-5 = test: NCI single dose (10 µM) SRB screen; format: cell-based, human; settings: melanoma, 48 h
A549/ATCC = test: NCI single dose (10 µM) SRB screen; format: cell-based, human; settings: non-small cell lung cancer, 48 h
COLO 205 = test: NCI single dose (10 µM) SRB screen; format: cell-based, human; settings: colon cancer, 48 h
NCI-H322M = test: NCI single dose (10 µM) SRB screen; format: cell-based; settings: non-small cell lung cancer, 48 h
Staphylococcus aureus = test: Agar well diffusion method
NCI-H23 = test: NCI single dose (10 µM) SRB screen; format: cell-based, human; settings: non-small cell lung cancer, 48 h
LOX IMVI = test: NCI single dose (10 µM) SRB screen; format: cell-based, human; settings: melanoma, 48 h
MDA-MB-468 = test: NCI single dose (10 µM) SRB screen; format: cell-based, human; settings: breast cancer, 48 h
HCT-15 = test: NCI single dose (10 µM) SRB screen; format: cell-based, human; settings: colon cancer, 48 h
HS578T = test: NCI single dose (10 µM) SRB screen; format: cell-based, human; settings: breast cancer, 48 h
HL-60(TB) = test: NCI single dose (10 µM) SRB screen; format: cell-based, human; settings: leukaemia, 48 h
PC-3 = test: NCI single dose (10 µM) SRB screen; format: cell-based, human; settings: prostate cancer, 48 h
SK-MEL-2 = test: NCI single dose (10 µM) SRB screen; format: cell-based, human; settings: melanoma, 48 h
UACC-257 = test: NCI single dose (10 µM) SRB screen; format: cell-based, human; settings: melanoma, 48 h
NCI/ADR-RES = test: NCI single dose (10 µM) SRB screen; format: cell-based, human; settings: ovarian cancer, 48 h
EKVX = test: NCI single dose (10 µM) SRB screen; format: cell-based, human; settings: non-small cell lung cancer, 48 h
SNB-19 = test: NCI single dose (10 µM) SRB screen; format: cell-based, human; settings: CNS cancer, 48 h
NCI-H226 = test: NCI single dose (10 µM) SRB screen; format: cell-based, human; settings: non-small cell lung cancer, 48 h
A498 = test: NCI single dose (10 µM) SRB screen; format: cell-based, human; settings: renal cancer, 48 h
KM12 = test: NCI single dose (10 µM) SRB screen; format: cell-based, human; settings: colon cancer, 48 h
CCRF-CEM = test: NCI single dose (10 µM) SRB screen; format: cell-based, human; settings: leukaemia, 48 h
HT29 = test: NCI single dose (10 µM) SRB screen; format: cell-based, human; settings: colon cancer, 48 h
SR = test: NCI single dose (10 µM) SRB screen; format: cell-based, human; settings: leukaemia, 48 h
SW-620 = test: NCI single dose (10 µM) SRB screen; format: cell-based, human; settings: colon cancer, 48 h
CAKI-1 = test: NCI single dose (10 µM) SRB screen; format: cell-based, human; settings: renal cancer, 48 h
M14 = test: NCI single dose (10 µM) SRB screen; format: cell-based, human; settings: melanoma, 48 h
MOLT-4 = test: NCI single dose (10 µM) SRB screen; format: cell-based, human; settings: leukaemia, 48 h
UO-31 = test: NCI single dose (10 µM) SRB screen; format: cell-based, human; settings: renal cancer, 48 h
ACHN = test: NCI single dose (10 µM) SRB screen; format: cell-based, human; settings: renal cancer, 48 h
HOP-62 = test: NCI single dose (10 µM) SRB screen; format: cell-based, human; settings: non-small cell lung cancer, 48 h
SNB-75 = test: NCI single dose (10 µM) SRB screen; format: cell-based, human; settings: CNS cancer, 48 h
U251 = test: NCI single dose (10 µM) SRB screen; format: cell-based, human; settings: CNS cancer, 48 h
HOP-92 = test: NCI single dose (10 µM) SRB screen; format: cell-based, human; settings: non-small cell lung cancer, 48 h
NCI 60 cancer cell lines = test: NCI single dose (10 µM) SRB screen, mean over panel; format: cell-based, human; settings: mean over 60 cell lines, 48 h
SF-295 = test: NCI single dose (10 µM) SRB screen; format: cell-based, human; settings: CNS cancer, 48 h
SF-268 = test: NCI single dose (10 µM) SRB screen; format: cell-based, human; settings: CNS cancer, 48 h
MALME-3M = test: NCI single dose (10 µM) SRB screen; format: cell-based, human; settings: melanoma, 48 h
UACC-62 = test: NCI single dose (10 µM) SRB screen; format: cell-based, human; settings: melanoma, 48 h
MDA-MB-231 = test: NCI single dose (10 µM) SRB screen; format: cell-based, human; settings: breast cancer, 48 h
RPMI-8226 = test: NCI single dose (10 µM) SRB screen; format: cell-based, human; settings: leukaemia, 48 h
SK-OV-3 = test: NCI single dose (10 µM) SRB screen; format: cell-based, human; settings: ovarian cancer, 48 h
MCF7 = test: NCI single dose (10 µM) SRB screen; format: cell-based, human; settings: breast cancer, 48 h
MDA-MB-435 = test: NCI single dose (10 µM) SRB screen; format: cell-based, human; settings: melanoma, 48 h
DU-145 = test: NCI single dose (10 µM) SRB screen; format: cell-based, human; settings: prostate cancer, 48 h
NCI-H522 = test: NCI single dose (10 µM) SRB screen; format: cell-based, human; settings: non-small cell lung cancer, 48 h
HCC-2998 = test: NCI single dose (10 µM) SRB screen; format: cell-based, human; settings: colon cancer, 48 h
HCT-116 = test: NCI single dose (10 µM) SRB screen; format: cell-based, human; settings: colon cancer, 48 h

COCCOC(=O)C1=C(C)NC(C)=C(C(=O)OCCOC)C1c1cccc(C#N)c1 [Compound 1f, Di(2-methoxyethyl) 4-(3-cyanophenyl)-2,6-dimethyl-1,4-dihydropyridine-3,5-dicarboxylate]
13%: GI% MDA-MB-468 (MDA-MB-468)
10%: GI% HL-60(TB) (HL-60(TB))
79% and 79.2%: % activity index, S. aureus (Staphylococcus aureus; relative to ciprofloxacin)
66.7%: % activity index, C. albicans (Candida albicans; relative to clotrimazole)
19 mm: zone of inhibition at 1000 µg/mL (Staphylococcus aureus; Staphylococcus aureus, 24 h, read-out: Diameter of inhibition zone, S. aureus)
14%: GI% SNB-75 (SNB-75)
18 mm: zone of inhibition at 1000 µg/mL (Candida albicans; Candida albicans, 24 h, read-out: Diameter of inhibition zone, C. albicans)
12%: GI% BT-549 (BT-549)
16 mm: zone of inhibition at 1000 µg/mL (Bacillus subtilis; Bacillus subtilis, 24 h, read-out: Diameter of inhibition zone, B. subtilis)
50%: % activity index, E. coli (Escherichia coli; relative to ciprofloxacin)
69.6%: % activity index, B. subtilis (Bacillus subtilis; relative to ciprofloxacin)
−1%: Mean GI% (NCI 60 cancer cell lines)
– (Only GI% ≥ 10 are shown): GI% TK-10 (TK-10) | GI% SK-MEL-5 (SK-MEL-5) | GI% A549/ATCC (A549/ATCC) | GI% COLO 205 (COLO 205) | GI% NCI-H322M (NCI-H322M) | GI% NCI-H23 (NCI-H23) | GI% LOX IMVI (LOX IMVI) | GI% HCT-15 (HCT-15) | GI% HS578T (HS578T) | GI% PC-3 (PC-3) | GI% SK-MEL-2 (SK-MEL-2) | GI% UACC-257 (UACC-257) | GI% NCI/ADR-RES (NCI/ADR-RES) | GI% EKVX (EKVX) | GI% SNB-19 (SNB-19) | GI% NCI-H226 (NCI-H226) | GI% A498 (A498) | GI% KM12 (KM12) | GI% CCRF-CEM (CCRF-CEM) | GI% HT29 (HT29) | GI% SR (SR) | GI% SW-620 (SW-620) | GI% CAKI-1 (CAKI-1) | GI% M14 (M14) | GI% MOLT-4 (MOLT-4) | GI% UO-31 (UO-31) | GI% ACHN (ACHN) | GI% HOP-62 (HOP-62) | GI% U251 (U251) | GI% HOP-92 (HOP-92) | GI% SF-295 (SF-295) | GI% SF-268 (SF-268) | GI% MALME-3M (MALME-3M) | GI% UACC-62 (UACC-62) | GI% MDA-MB-231 (MDA-MB-231) | GI% RPMI-8226 (RPMI-8226) | GI% SK-OV-3 (SK-OV-3) | GI% MCF7 (MCF7) | GI% MDA-MB-435 (MDA-MB-435) | GI% DU-145 (DU-145) | GI% NCI-H522 (NCI-H522) | GI% HCC-2998 (HCC-2998) | GI% HCT-116 (HCT-116)
13 mm: zone of inhibition at 1000 µg/mL (Escherichia coli; Escherichia coli, 24 h, read-out: Diameter of inhibition zone, E. coli)
